In data set [1] the test system is chloroquine-sensitive (CQS) strain of P. falciparum (D10). The data set is described as follows: in vitro antiplasmodial activity, chloroquine-sensitive strain D10. Format: cell-based, Plasmodium falciparum. As to conditions: for antiplasmodial activity (in words): in vitro, P. falciparum. How it is done:
All samples were tested in triplicate on one occasion against a chloroquine-sensitive (CQS) strain of P. falciparum (D10). […] The antiplasmodial and cytotoxicity assays were performed as described previously.

Data set [2] has as its system chloroquine-resistant (CQR) strain of P. falciparum (Dd2). The data set is described as follows: in vitro antiplasmodial activity, chloroquine-resistant strain Dd2. It counts as cell-based, Plasmodium falciparum. Conditions: for RI (Resistance Index) = IC50 Dd2/IC50 D10: ratio Dd2/D10.
Data set [3] concerns Chinese hamster ovary (CHO) cell-line. As to the kind of experiment: in vitro cytotoxicity against CHO cell-line. It counts as cell-based. As to conditions: for IC50: read-out: CHO: IC50; for SI (Selectivity Index) = IC50 CHO/IC50 D10: ratio CHO/D10. Here is the method:
At first, compounds 6a–c, 8a–e, 9a–d, 12a,b, 14a–e, 15a–f and 16a–g were screened for in vitro antiplasmodial activity. All samples were tested in triplicate on one occasion against a chloroquine-sensitive (CQS) strain of P. falciparum (D10). Those samples showing antiplasmodial activity were then tested in triplicate on one occasion against a chloroquine-resistant (CQR) strain of P. falciparum (Dd2) and screened for in vitro cytotoxicity against a Chinese hamster ovary (CHO) cell-line, in triplicate on one occasion. The antiplasmodial and cytotoxicity assays were performed as described previously.

The test system of a further data set is P. berghei. Set-up: method as in PMID 17194200, PMID 14500986. Conditions: in vivo; cited from earlier work.
For a further data set, the system named is P. falciparum. Set-up: method as in PMID 17194200, PMID 14500986. As to conditions: cited from earlier work.
Setting [4] is: CQS strain D10, tested in triplicate on one occasion, hydrophobic samples added as suspension, read-out: D10: IC50.
The mark [5] stands for this setting: Plasmodium falciparum, CQR strain Dd2, tested in triplicate on one occasion, read-out: Dd2: IC50.
The mark [6] stands for this setting: Cricetulus griseus, CHO cell-line, in triplicate on one occasion.
Where [7] appears, read: CQR strain Dd2, tested in triplicate on one occasion, read-out: Dd2: IC50.
The mark [8] stands for this setting: CHO cell-line, in triplicate on one occasion.
[9] abbreviates: Plasmodium falciparum, D10, CQS strain D10, tested in triplicate on one occasion, hydrophobic samples added as suspension, read-out: D10: IC50.
Setting [10] is: Plasmodium falciparum, DD2, read-out: Dd2: IC50.
Setting [11] is: Plasmodium falciparum, D10, read-out: D10: IC50, CQS strain D10, tested in triplicate on one occasion, hydrophobic samples added as suspension.
Setting [12] is: read-out: D10: IC50, CQS strain D10, tested in triplicate on one occasion, hydrophobic samples added as suspension.

SMILES strings stand for the structures. Values joined by “and” are separate entries in the source; they are usually repeats but may differ in a detail not shown here. Identical values can stand only once. Like-named read-outs stand apart in the source and are kept apart here.

For orientation: IC50 means the midpoint of a concentration-inhibition curve. As to `[N-]=[N+]=NCC1CN1Cc1cccc(Cl)c1` (centres unmarked) [Compound 14e], the IC50 in data set [1] (setting [4]) worked out at 180 µM.
For the compound `OCC(NCc1ccc(Cl)cc1)C(O)c1ccccc1` (racemic) [Compound 9d], in data set [1] (setting [4]), the IC50 is 80.7 µM.
As to `CN(C)CC(Cn1cc(-c2ccccc2)nn1)NCc1ccccc1Cl` (centres unmarked) [Compound 16f], the IC50 was found to be 13 µM in data set [2] (setting [5]) and 182 µM in data set [3] (setting [6]). The “RI (Resistance Index) = IC50 Dd2/IC50 D10” value in data set [2] is reported as 1.2. Besides, the “SI (Selectivity Index) = IC50 CHO/IC50 D10” value in data set [3] is listed as 16.1.
For the compound `COC(c1ccccc1)C(CO)NC(C)C` (racemic) [Compound 8a], the IC50 in data set [1] (setting [4]) was determined as 370 µM.
On to `OCC(Cc1ccc(Cl)cc1)NCc1ccccc1` (centres unmarked) [Compound 6a], for which the IC50 in data set [2] (setting [7]) is 10.9 µM; in data set [1] (setting [4]), ≤ 25 µM and 12.6 µM; in data set [3] (setting [8]), 138 µM. Further, the “RI (Resistance Index) = IC50 Dd2/IC50 D10” value in data set [2] is listed as 0.9. For the same compound, the “SI (Selectivity Index) = IC50 CHO/IC50 D10” value in data set [3] was found to be 11.
In the case of `COc1ccc(C(OC)C(CO)NCC(C)C)cc1` (racemic) [Compound 8d], the IC50 in data set [2] (setting [7]) was 25.7 µM; in data set [1] (setting [4]) it was 38.6 µM; in data set [3] (setting [8]), greater than 530 µM. In addition, the “RI (Resistance Index) = IC50 Dd2/IC50 D10” value in data set [2] was determined as 0.7.
In the case of `OCC(NCc1ccccc1)C(O)c1ccccc1Cl` (racemic) [Compound 9b], the IC50 was 13.6 µM in data set [2] (setting [7]); ≤ 25 µM and 21.2 µM in data set [1] (setting [4]); greater than 530 µM in data set [3] (setting [8]). The “RI (Resistance Index) = IC50 Dd2/IC50 D10” value in data set [2] amounted to 0.6.
As for `CCCNC(CO)Cc1ccccc1F` (centres unmarked) [Compound 6c], in data set [1] (setting [4]), the IC50 is 217 µM.
Consider `CCN(CC)CC(Cn1cc(-c2ccccc2)nn1)NCc1ccc(OC)cc1` (centres unmarked) [Compound 16c], for which, in data set [1] (setting [4]), the IC50 turned out to be 140 µM.
As to `Cc1ccc(C(O)C(CO)NCc2ccccc2)cc1` (racemic) [Compound 9c], the half-maximal inhibitory concentration (IC50) in data set [1] (setting [4]) was 130 µM.
With `CCN(CC)CC(Cn1cc(-c2ccccc2)nn1)NCc1ccccc1` (centres unmarked) [Compound 16a, 3-Diethylamino-2-(phenylmethyl)amino-1-(4-phenyl-1,2,3-triazol-1-yl)propane], the IC50 in data set [2] (setting [5]) is 231 µM; in data set [1] (setting [4]), 22.1 µM; in data set [1] (setting [9]) it was no more than 25 µM; in data set [3] (setting [6]), greater than 530 µM. In addition, the “RI (Resistance Index) = IC50 Dd2/IC50 D10” value in data set [2] is on record as 10.5.
With `CC(C)(C)N[C@H](CO)[C@H](O)c1ccccc1F` [Compound 12b], the IC50 in data set [1] (setting [9]) amounted to 60.5 µM.
`[N-]=[N+]=NCC1CN1Cc1ccccc1Cl` (centres unmarked) [Compound 14d]: the IC50 in data set [1] (setting [4]) came out at 93.7 µM.
Consider `[N-]=[N+]=NCC1CN1Cc1ccccc1` (centres unmarked) [Compound 14a, 2-Azidomethyl-1-(phenylmethyl)aziridine], for which the IC50 in data set [2] (setting [10]) is 467 µM; in data set [1] (setting [11]), 230 µM; in data set [3] (Cricetulus griseus, CHO) it was greater than 530 µM. For the same compound, the “RI (Resistance Index) = IC50 Dd2/IC50 D10” value in data set [2] was found to be 2.
Regarding `[N-]=[N+]=NCC1CN1Cc1ccc(Cl)cc1` (centres unmarked) [Compound 14b], the IC50 in data set [1] (setting [4]) was determined as 101 µM.
Consider `CN(C)CC(Cn1cc(-c2ccccc2)nn1)NCc1ccccc1` (centres unmarked) [Compound 16g], for which the IC50 in data set [1] (setting [4]) stood at 69.6 µM.
On to `COC(c1ccccc1)C(CO)NCc1ccccc1` (racemic) [Compound 8b], for which, in data set [1] (setting [4]), the 50% inhibitory concentration (IC50) was determined as 144 µM.
As to `COc1ccc(-c2cn(CC3CN3Cc3ccccc3)nn2)cc1` (centres unmarked) [Compound 15e], the half-inhibitory concentration (IC50) in data set [1] (setting [11]) came to 40.5 µM.
Regarding `CC[C@H]1CN2CCc3cc(OC)c(OC)cc3[C@@H]2C[C@@H]1C[C@H]1NCCc2cc(OC)c(OC)cc21` [Emetine, reference compound], in data set [3] (setting [6]), the half-inhibitory concentration (IC50) is 0.27 µM.
One may read the melting point as the temperature, or range, at which the solid turns liquid. Turning to `COc1ccccc1[C@@H](O)[C@@H](CO)NC(C)(C)C` [Compound 12a, syn-2-(N-tert-Butylamino)-1-(2-methoxyphenyl)propan-1,3-diol], the melting point worked out at 112.8 °C. For the same compound, in data set [1] (setting [9]), the concentration for half-maximal inhibition (IC50) turned out to be 98.7 µM.
`c1ccc(CN2CC2Cn2cc(-c3ccccc3)nn2)cc1` (centres unmarked) [Compound 15a, 1-Phenylmethyl-2-[(4-phenyl-1,2,3-triazol-1-yl)methyl]aziridine]: the IC50 in data set [2] (setting [10]) is 107 µM; in data set [1] (setting [11]), 34.4 µM; in data set [3] (Cricetulus griseus, CHO), greater than 530 µM. Moreover, in data set [2], the “RI (Resistance Index) = IC50 Dd2/IC50 D10” value is on record as 3.1.
For the compound `CCN(CC)CC(Cn1cc(-c2ccc(C)cc2)nn1)NCc1ccccc1` (centres unmarked) [Compound 16d], the IC50 in data set [1] (setting [4]) was determined as 32.5 µM.
On the same count and under the same terms, the same measure for `COC(c1ccc(Cl)cc1)C(CO)NCc1ccccc1` (racemic) [Compound 8c]: 199 µM.
In the case of `COc1ccc(CN2CC2Cn2cc(-c3ccccc3)nn2)cc1` (centres unmarked) [Compound 15c], the concentration for half-maximal inhibition (IC50) in data set [2] (setting [10]) was 55.6 µM; in data set [1] (setting [11]), no more than 25 µM; in data set [1] (setting [12]) it was 25.7 µM; in data set [3] (Cricetulus griseus, CHO), greater than 530 µM. Further, in data set [2], the “RI (Resistance Index) = IC50 Dd2/IC50 D10” value stood at 2.2. Further, the “antiplasmodial activity (in words)” value in data set [1] is on record as “weak antiplasmodial activity”.
As for `CCN(CC)CC(Cn1cc(-c2ccc(OC)cc2)nn1)NCc1ccccc1` (centres unmarked) [Compound 16e], the concentration for half-maximal inhibition (IC50) in data set [1] (setting [9]) was 171 µM.
On to `COc1ccc(CC(CO)NCC(C)C)cc1` (centres unmarked) [Compound 6b], for which the IC50 in data set [1] (setting [4]) came out at 282 µM.
As for `CCN(CC)CCCC(C)Nc1ccnc2cc(Cl)ccc12` (centres unmarked) [CQ, reference compound], the IC50 in data set [2] (setting [10]) amounted to 0.0756 µg/mL; in data set [1] (Plasmodium falciparum, D10, read-out: D10: IC50, CQS strain D10, n = 6 data sets averaged) it was 0.0191 µg/mL. The “RI (Resistance Index) = IC50 Dd2/IC50 D10” value in data set [2] worked out at 3.9.
On to `CCCNC(CO)C(OC)c1ccccc1F` (racemic) [Compound 8e], for which the IC50 in data set [2] (setting [7]) was 21.9 µM; in data set [1] (setting [4]), 38.5 µM; in data set [3] (setting [8]), greater than 530 µM. The “RI (Resistance Index) = IC50 Dd2/IC50 D10” value in data set [2] is recorded as 0.6.
As for `OCC(NCc1ccccc1)C(O)c1ccc(Cl)cc1` (stereo not drawn) [Compound 9a, anti-2-(N-Benzylamino)-1-(4-chlorophenyl)propan-1,3-diol], the IC50 is 8.47 µM in data set [2] (setting [7]); ≤ 25 µM and 25.2 µM in data set [1] (setting [4]); greater than 530 µM in data set [3] (setting [8]). Also, the “RI (Resistance Index) = IC50 Dd2/IC50 D10” value in data set [2] was found to be 0.3.
As for `Cc1ccc(-c2cn(CC3CN3Cc3ccccc3)nn2)cc1` (centres unmarked) [Compound 15d], the IC50 in data set [2] (setting [10]) is 21 µM; in data set [1] (setting [11]), no more than 25 µM; in data set [1] (setting [12]) it was 20.4 µM; in data set [3] (Cricetulus griseus, CHO), greater than 530 µM. For the same compound, the “RI (Resistance Index) = IC50 Dd2/IC50 D10” value in data set [2] stood at 1. In addition, the “antiplasmodial activity (in words)” value in data set [1] is “weak antiplasmodial activity”.
Regarding `CCN(CC)CC(Cn1cc(-c2ccccc2)nn1)NCc1ccc(Cl)cc1` (centres unmarked) [Compound 16b], the IC50 in data set [2] (setting [7]) was 176 µM; in data set [1] (setting [4]), ≤ 25 µM and 25.9 µM; in data set [3] (setting [8]) it was greater than 530 µM. For the same compound, the “RI (Resistance Index) = IC50 Dd2/IC50 D10” value in data set [2] is reported as 6.8.
For `Clc1ccc(CN2CC2Cn2cc(-c3ccccc3)nn2)cc1` (centres unmarked) [Compound 15b], the IC50 in data set [1] (setting [4]) is 41.3 µM.
Take `COc1ccc(CN2CC2CN=[N+]=[N-])cc1` (centres unmarked) [Compound 14c]: in data set [1] (setting [4]), the IC50 amounted to 160 µM.
For the compound `CC(C)NCC(O)COc1cccc2ccccc12` (centres unmarked) [propranolol], the “parasitaemia of P. berghei infections” value with P. berghei was “reduce the parasitaemia”. Moreover, the “infection of erythrocytes by P. falciparum” value in the data set with P. falciparum is recorded as “inhibit infection of erythrocytes”.
